According to patent US20170283804A1, “ANTISENSE COMPOUNDS AND USES THEREOF” (Ionis Pharmaceuticals, Inc., priority 2014, published 2017):

Test system: mouse Scavenger Receptor Class B, Number 1 (SRB-1) transcript
Assay: Isis No. 353382 activity in MHT cells with or without bioactive lipid pre-treatment (SRB-1 mRNA, real-time PCR)
Type: cell-based
Settings: 200 nM myriocin 2 hours before Isis No. 353382
From the text: Antisense oligonucleotides were synthesized using standard solid phase oligonucleotide synthetic methods. Isis No. 353382 targets the mouse Scavenger Receptor Class B, Number 1 (SRB-1) transcript (GENBANK accession number NM_016741.1, SEQ ID NO: 1). The sequence of Isis No. 353382 is 5′-[…]-3′ (SEQ ID NO: 2). It is a 5-10-5 MOE gapmer, wherein the five nucleosides at the 5′-end and the five nucleosides at the 3′-end comprise 2′-methoxyethyl (MOE) modifications, and the ten middle nucleosides are 2′-deoxynucleosides. All internucleoside linkages are phosphorothioate linkages. The cytosine bases are 5-methylcytosines.
In order to test the effect of pre-treatment with bioactive lipids on Isis No. 353382 activity in vitro, mouse hepatocellular SV40 large T-antigen (MHT) carcinoma cells were treated with 200 nM myriocin or 3 μM FTY-720 was added 2 hours before Isis No. 353382 at the concentrations shown in Tables 1 and 2 below. Cells were lysed 24 hours following oligonucleotide addition, and total RNA was purified. SRB-1 mRNA levels were determined using real-time PCR and RIBOGREEN® RNA quantification reagent (Molecular Probes, Inc. Eugene, Oreg.) according to standard protocols.

CCCCCCC(=O)CCCCCC/C=C/C[C@@H](O)[C@H](O)[C@@](N)(CO)C(=O)O [myriocin, reference compound]
Effect of pre-treatment on the effect of Isis No. 353382 in vitro: potentiated the effect of Isis No. 353382
